Source: ChEMBL document CHEMBL1201862, “PubChem BioAssay data set” (2004)
The source made the active and inactive calls.

Key:
[1] = target: Delta-type opioid receptor (Homo sapiens, UniProt P41143); test: Late-stage results from the probe development effort to identify antagonists of OPRK1: fluorescence-based cell-based dose response OPRD1 counterscreen.; type: functional
[2] = target: Mu-type opioid receptor (Homo sapiens, UniProt P35372); test: Late-stage results from the probe development effort to identify antagonists of OPRK1: luminescence-based cell-based dose response OPRM1 counterscreen.; type: functional
[3] = target: Caspase-6 (Homo sapiens, UniProt P55212); test: human caspase-6 inhibitors, dose response, biochemical, VEID-R110 fluorescence, cherry-pick (AID 720632)
[4] = HepG2 cell cytotoxicity, dose response, cytotoxicity control, cherry-picks, set 5 (AID 1053118); type: functional, cell-based
[5] = HEK293 cell cytotoxicity, dose response, cytotoxicity control, cherry-picks, set 5 (AID 1053117); type: functional, cell-based
[6] = inhibitors of fibronectin matrix deposition, dose response, AH1F cells, Alexa488-FN fluorescence, cherry-picks (AID 1035475); type: functional, cell-based
[7] = Late stage assay provider results from the probe development effort to identify selective inhibitors of heat shock protein 90 (HSP90): Absorbance-based cell proliferation assay in SKBR3 cells.; type: functional; conditions: SK-BR-3
[8] = Late stage assay provider results from the probe development effort to identify selective inhibitors of heat shock protein 90 (HSP90): Absorbance-based cell proliferation assay in MCF7 cells.; type: functional
[9] = cytotoxicity in HepG2 cells, dose response, cytotoxicity control, cell-based, plate reader, dry powder (AID 651947); type: functional
[10] = A549 cell cytotoxicity, dose response, cytotoxicity control, 24 h, CellTiter-Glo luminescence, cherry-picks (AID 1053115); type: functional, cell-based; conditions: A549, 24 h
[11] = target: fMet-Leu-Phe receptor (Homo sapiens, UniProt P21462); test: FPR ligands, dose response (AID 519); type: functional
[12] = A Cell-Based Confirmatory Screen for Compounds that Inhibit VEEV, TC-83 (8).; type: functional
[13] = target: NAD-dependent protein deacylase sirtuin-5, mitochondrial (Homo sapiens, UniProt Q9NXA8); test: SIRT5 desuccinylase inhibitors, dose response, biochemical, fluorescence imaging, cherry-pick, set 5 (AID 720591);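 note: desuccinylation of succinyl peptide AMC substrate read as fluorescence after trypsin release; potency of inhibitors that lower fluorescence and may act on trypsin instead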
[14] = ADAM10 inhibitors, peptide cleavage, dose response, biochemical, QFRET (AID 743254);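 note: ADAM10 enzyme with the DM2 quenched FRET peptide as substrate; EDANS fluorescence gain as the protease cuts the substrate; inhibitor potency against ADAM10 proteolytic activity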
[15] = target: Disintegrin and metalloproteinase domain-containing protein 17 (Homo sapiens, UniProt P78536); test: ADAM17 protease inhibitors, dose response, counter-screen for ADAM10 exosite inhibitor project, biochemical, quenched FRET substrate (AID 743253)
Disintegrin and metalloproteinase domain-containing protein 17, sequence (P78536 whole entry, the tested form may be a part): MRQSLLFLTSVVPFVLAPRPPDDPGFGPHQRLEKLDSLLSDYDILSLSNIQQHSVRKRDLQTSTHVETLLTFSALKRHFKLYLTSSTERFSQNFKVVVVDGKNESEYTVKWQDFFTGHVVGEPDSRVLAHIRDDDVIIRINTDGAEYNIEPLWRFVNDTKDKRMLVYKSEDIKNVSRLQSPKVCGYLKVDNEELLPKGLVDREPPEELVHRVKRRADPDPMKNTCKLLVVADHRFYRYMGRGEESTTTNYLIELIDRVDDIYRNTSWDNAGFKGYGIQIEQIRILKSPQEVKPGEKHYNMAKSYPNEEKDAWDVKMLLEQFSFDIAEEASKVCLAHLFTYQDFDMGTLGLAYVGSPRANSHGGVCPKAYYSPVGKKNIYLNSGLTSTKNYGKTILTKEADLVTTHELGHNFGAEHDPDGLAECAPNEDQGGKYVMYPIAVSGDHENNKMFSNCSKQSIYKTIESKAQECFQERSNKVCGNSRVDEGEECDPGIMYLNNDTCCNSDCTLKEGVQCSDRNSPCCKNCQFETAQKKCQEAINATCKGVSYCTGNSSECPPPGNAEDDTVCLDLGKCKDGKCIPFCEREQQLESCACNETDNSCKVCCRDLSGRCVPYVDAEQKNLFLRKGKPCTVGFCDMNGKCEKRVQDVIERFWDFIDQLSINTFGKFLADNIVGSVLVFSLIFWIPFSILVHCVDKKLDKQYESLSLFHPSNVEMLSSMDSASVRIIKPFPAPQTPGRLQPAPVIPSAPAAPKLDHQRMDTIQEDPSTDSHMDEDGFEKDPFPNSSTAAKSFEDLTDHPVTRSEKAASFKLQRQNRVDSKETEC

Mu-type opioid receptor, sequence (P35372 whole entry): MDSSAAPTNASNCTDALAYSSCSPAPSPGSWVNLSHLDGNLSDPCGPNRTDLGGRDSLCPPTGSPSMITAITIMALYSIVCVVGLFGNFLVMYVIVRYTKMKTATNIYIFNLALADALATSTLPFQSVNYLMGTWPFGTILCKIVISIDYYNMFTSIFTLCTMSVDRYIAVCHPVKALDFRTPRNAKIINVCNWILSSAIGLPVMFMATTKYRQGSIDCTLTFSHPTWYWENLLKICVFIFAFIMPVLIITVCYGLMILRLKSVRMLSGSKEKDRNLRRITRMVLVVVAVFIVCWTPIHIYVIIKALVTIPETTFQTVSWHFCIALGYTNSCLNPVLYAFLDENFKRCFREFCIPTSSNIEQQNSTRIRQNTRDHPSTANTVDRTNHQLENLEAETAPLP
Delta-type opioid receptor, sequence (P41143 whole entry): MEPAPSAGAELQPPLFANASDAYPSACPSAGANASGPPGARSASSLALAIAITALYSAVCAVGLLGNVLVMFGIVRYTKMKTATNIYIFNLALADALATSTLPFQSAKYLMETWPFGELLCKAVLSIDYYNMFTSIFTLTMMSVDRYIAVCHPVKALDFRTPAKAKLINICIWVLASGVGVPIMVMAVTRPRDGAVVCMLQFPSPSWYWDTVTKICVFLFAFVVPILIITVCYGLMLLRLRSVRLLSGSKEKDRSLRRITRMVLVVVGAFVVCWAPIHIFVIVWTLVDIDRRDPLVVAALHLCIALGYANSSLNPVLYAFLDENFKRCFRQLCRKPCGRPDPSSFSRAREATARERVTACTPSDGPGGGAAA
fMet-Leu-Phe receptor, sequence (P21462 whole entry): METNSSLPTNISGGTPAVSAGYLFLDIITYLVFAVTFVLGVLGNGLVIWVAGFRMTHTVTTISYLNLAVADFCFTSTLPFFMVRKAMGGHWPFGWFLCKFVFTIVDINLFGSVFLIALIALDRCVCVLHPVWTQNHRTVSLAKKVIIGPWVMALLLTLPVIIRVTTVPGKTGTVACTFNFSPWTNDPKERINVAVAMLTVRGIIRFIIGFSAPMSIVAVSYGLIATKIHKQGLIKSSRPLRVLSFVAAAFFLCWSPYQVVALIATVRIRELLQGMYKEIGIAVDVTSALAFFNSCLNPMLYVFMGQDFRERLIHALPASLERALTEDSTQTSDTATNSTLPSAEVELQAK
Caspase-6, sequence (P55212 24-179 limits assumed): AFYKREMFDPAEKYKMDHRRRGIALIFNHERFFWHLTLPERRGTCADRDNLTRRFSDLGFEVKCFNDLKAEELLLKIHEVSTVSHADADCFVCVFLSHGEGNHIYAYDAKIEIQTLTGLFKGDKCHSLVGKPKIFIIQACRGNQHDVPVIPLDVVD
Caspase-6, sequence (P55212 194-293 limits assumed): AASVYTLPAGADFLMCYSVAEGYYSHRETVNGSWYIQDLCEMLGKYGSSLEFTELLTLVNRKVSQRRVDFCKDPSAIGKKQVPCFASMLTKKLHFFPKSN
NAD-dependent protein deacylase sirtuin-5, mitochondrial, sequence (Q9NXA8 whole entry): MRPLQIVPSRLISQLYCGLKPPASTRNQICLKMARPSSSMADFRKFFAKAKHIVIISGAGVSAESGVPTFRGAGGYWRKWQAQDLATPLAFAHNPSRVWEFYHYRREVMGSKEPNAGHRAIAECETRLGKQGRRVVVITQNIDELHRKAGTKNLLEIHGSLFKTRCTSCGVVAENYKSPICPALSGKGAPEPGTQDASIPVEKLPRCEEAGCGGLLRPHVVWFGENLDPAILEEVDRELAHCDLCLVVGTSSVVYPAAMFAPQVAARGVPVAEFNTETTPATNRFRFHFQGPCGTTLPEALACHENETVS

Q: For `CC(C)OC(=O)c1cc(Br)cnc1N1CCC(NC2CCCCC2)CC1`, which IC50 [1] is on record?
A: 3 µM (active)

Q: What about the IC50 [2] of the same molecule?
A: 20 µM (inactive)

Q: With `O=C(Nc1sc2c(c1C(=O)O)CCC2)C(=O)N1CCOCC1` as the molecule, how does the AC50 [3] read?
A: 30.7 µM (active)

Q: For `O=S(=O)(c1cccc(F)c1)N1CC[C@@H]2[C@@H](CO)Nc3ccc(-c4cccc(F)c4)cc3[C@@H]21`, which AC50 [4] is on record?
A: 27.3 µM (active)

Q: And the AC50 [5]?
A: 22.6 µM (active)

Q: And the AC50 [6]?
A: 6.54 µM (active)

Q: With `COc1c[nH]c(C(=O)Nc2cccc(C(C)=O)c2)cc1=O` as the molecule, how does the IC50 [7] read?
A: > 100 µM (inactive)

Q: What about the IC50 [8] of the same molecule?
A: > 100 µM (inactive)

Q: For `Cc1ccccc1CSc1nnc(-c2ccccc2)o1`, which AC50 [9] is on record?
A: 0.308 µM (active)

Q: Which AC50 [10] does the source give for `OC[C@H]1Nc2ccc(-c3cccc(F)c3)cc2[C@H]2[C@@H]1CCN2Cc1ccc(F)cc1` here?
A: 45.3 µM (active)

Q: With `COc1ccc2c(=O)c(-c3cnn(-c4ccccc4)c3)c(C)oc2c1` as the molecule, how does the Ki [11] read?
A: > 66.7 µM (inactive)

Q: Which IC50 [12] does the source give for `CNCCN(C)Cc1nc2ccc(C#N)cc2c(=O)n1-c1ccccc1F` here?
A: 3.69 µM (active)

Q: With `COc1ccc(OC)c(NC(=O)C2CCN(C(=O)c3cccs3)CC2)c1` as the molecule, how does the AC50 [13] read?
A: 26.6 µM (active)

Q: Which results are given for `Cc1cccc([C@@H]2[C@@H]3C(=O)N(Cc4ccccc4)C(=O)[C@@H]3[C@]3(Cc4ccccc4)C(=O)N(c4ccc(C(F)(F)F)cc4)C(=O)N23)c1`?
A: IC50 [14]: > 69.6 µM (inactive); IC50 [15]: > 69.6 µM (inactive)
